Measurements reported in PubChem BioAssay AID328 (DTP/NCI, 2004).
Inconclusive results and toxic doses are left out. Starred links: 1 amine or outer side, 2 acyl side, 3 side chain; linkers in the order of their positions; H or OH if unused. Positions of bridges follow the written chain, without caps; N, C: chain ends. Non-standard residues stand in square brackets, D forms with d. Residues, ends and D or L forms follow the SMILES beside them. ξ: configuration not given here. *: point of attachment. ξOrn(4,5-diOH) = O=C(C(CC(O)C(O)N[*:3])N[*:1])[*:2]; ξhTyr(βξ-OH,γξ-OH) = NC(C(=O)O)C(O)C(O)c1ccc(O)cc1; ξPro(3ξ-OH,4ξ-Me) = CC1CNC(C(=O)O)C1O; X4 = CCCCC/C=C/C/C=C\CCCCCCCC(=O)*; Hyp = O=C(O)[CH]1C[CH](O)CN1

Test system: BDF1 mice, P388 leukemia ip, median survival T/C
Experiment: NCI In Vivo Anticancer Drug Screen. Data for tumor model P388 Leukemia (intraperitoneal) in B6D2F1 (BDF1) mice
Settings: endpoint: median survival time, higher = longer survival
Outline: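 Survival ratio, drug arm over vehicle arm, in mice with a transplanted tumour.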

[1] = dose: 50.0 mg/kg/injection, schedule: Q01DX009 (ip), vehicle: saline with Tween-80
[2] = dose: 100.0 mg/kg/injection, schedule: Q01DX009 (ip), vehicle: saline with Tween-80
[3] = dose: 200.0 mg/kg/injection, schedule: Q01DX009 (ip), vehicle: saline with Tween-80
[4] = dose: 400.0 mg/kg/injection, schedule: Q04DX003 (ip), vehicle: saline with Tween-80
[5] = dose: 100.0 mg/kg/injection, schedule: Q04DX002 (ip), vehicle: saline with Tween-80
[6] = dose: 100.0 mg/kg/injection, schedule: Q04DX003 (ip), vehicle: Klucel (hydroxypropylcellulose) (HPC)

## CCOc1nc(=O)n(CC(=O)c2ccc(Cl)s2)cc1F
[1]
  T/C: 114 % of control
[2]
  T/C: 103 % of control
dose: 100.0 mg/kg/injection, schedule: Q04DX003 (ip), vehicle: saline with Tween-80
  T/C: 110 % of control
[3]
  T/C: 99 % of control
dose: 200.0 mg/kg/injection, schedule: Q04DX003 (ip), vehicle: saline with Tween-80
  T/C: 111 % of control
dose: 400.0 mg/kg/injection, schedule: Q01DX009 (ip), vehicle: saline with Tween-80
  T/C: 87 % of control
[4]
  T/C: 104 % of control

## CC(=O)CC(C)=O.CC(=O)CC(C)=O.CC(C)c1ncc[nH]1.O=N[O-].[Co]
[5]
  T/C: 105 % of control
dose: 200.0 mg/kg/injection, schedule: Q04DX002 (ip), vehicle: saline with Tween-80
  T/C: 107 % of control

## O=C(/C=N\O)c1ccncc1
dose: 50.0 mg/kg/injection, schedule: Q04DX003 (ip), vehicle: Klucel (hydroxypropylcellulose) (HPC)
  T/C: 100 % of control
[6]
  T/C: 100 % of control

## CC(=O)N(CCN(Cc1ccc(Oc2ccc([N+](=O)[O-])cc2[N+](=O)[O-])cc1)C(C)=O)CCN(Cc1ccc(Oc2ccc([N+](=O)[O-])cc2[N+](=O)[O-])cc1)C(C)=O
dose: 25.0 mg/kg/injection, schedule: Q01DX009 (ip), vehicle: other
  T/C: 94 % of control
dose: 50.0 mg/kg/injection, schedule: Q01DX009 (ip), vehicle: other
  T/C: 103 % of control
dose: 100.0 mg/kg/injection, schedule: Q01DX009 (ip), vehicle: other
  T/C: 100 % of control
dose: 200.0 mg/kg/injection, schedule: Q01DX009 (ip), vehicle: other
  T/C: 94 % of control
dose: 400.0 mg/kg/injection, schedule: Q01DX009 (ip), vehicle: other
  T/C: 103 % of control

## O=C1CC(SC(=S)C2CCCC2=O)C(=O)O1 (stereo not drawn)
[1]
  T/C: 122 % of control

## C=CC1CC[N-]CC1.C=CC1CC[N-]CC1.C=CC1CC[N-]CC1.[Cl][Cr]([Cl])[Cl]
dose: 12.5 mg/kg/injection, schedule: Q01DX009 (ip), vehicle: saline with Tween-80
  T/C: 100 % of control
dose: 25.0 mg/kg/injection, schedule: Q01DX009 (ip), vehicle: saline with Tween-80
  T/C: 109 % of control
[1]
  T/C: 104 % of control

## C[N-]c1nnnn1Cc1ccccc1.[Au+].c1ccc([PH+](c2ccccc2)c2ccccc2)cc1
dose: 25.0 mg/kg/injection, schedule: Q04DX002 (ip), vehicle: saline with Tween-80
  T/C: 109 % of control
dose: 50.0 mg/kg/injection, schedule: Q04DX002 (ip), vehicle: saline with Tween-80
  T/C: 102 % of control
[5]
  T/C: 116 % of control

## Nc1[nH]c(=O)ncc1[N+](=O)[O-]
[1]
  T/C: 102 % of control
[2]
  T/C: 118 % of control

## N#Cc1cnc2n(c1=N)CCCCC2
[6]
  T/C: 94 % of control

## Cc1ccn2c(CCc3nnc4cc(C)ccn34)nnc2c1
[1]
  T/C: 90 % of control
[2]
  T/C: 93 % of control
[3]
  T/C: 106 % of control

## NC(=O)C(CO)NC(=O)OCc1ccccc1 (stereo not drawn)
dose: 25.0 mg/kg/injection, schedule: Q04DX003 (ip), vehicle: water
  T/C: 110 % of control
dose: 50.0 mg/kg/injection, schedule: Q04DX003 (ip), vehicle: water
  T/C: 103 % of control
dose: 100.0 mg/kg/injection, schedule: Q04DX003 (ip), vehicle: water
  T/C: 100 % of control
dose: 200.0 mg/kg/injection, schedule: Q04DX003 (ip), vehicle: water
  T/C: 100 % of control
dose: 400.0 mg/kg/injection, schedule: Q04DX003 (ip), vehicle: water
  T/C: 103 % of control

## CCOC1=NCCCCC1
dose: 50.0 mg/kg/injection, schedule: Q01DX009 (ip), vehicle: saline
  T/C: 98 % of control
dose: 100.0 mg/kg/injection, schedule: Q01DX009 (ip), vehicle: saline
  T/C: 95 % of control
dose: 200.0 mg/kg/injection, schedule: Q01DX009 (ip), vehicle: saline
  T/C: 98 % of control
dose: 400.0 mg/kg/injection, schedule: Q01DX009 (ip), vehicle: saline
  T/C: 98 % of control

## CCCCC/C=C/C/C=C\CCCCCCCC(=O)NC1CC(O)C(O)NC(=O)C2C(O)C(C)CN2C(=O)C(C(C)O)NC(=O)C(C(O)C(O)c2ccc(O)cc2)NC(=O)C2CC(O)CN2C(=O)C(C(C)O)NC1=O (stereo not drawn) (X4-[ξOrn(4,5-diOH)]T[Hyp][ξhTyr(βξ-OH,γξ-OH)]T[ξPro(3ξ-OH,4ξ-Me)]; lactam 1-C; configuration not given here)
dose: 0.5 mg/kg/injection, schedule: Q01DX009 (ip), vehicle: lactate
  T/C: 100 % of control
dose: 1.0 mg/kg/injection, schedule: Q01DX009 (ip), vehicle: lactate
  T/C: 102 % of control
dose: 2.0 mg/kg/injection, schedule: Q01DX009 (ip), vehicle: lactate
  T/C: 102 % of control
dose: 4.0 mg/kg/injection, schedule: Q01DX009 (ip), vehicle: lactate
  T/C: 100 % of control

## CC(C)(C)C1CCC(C#N)(N=Nc2ccccc2)CC1 (stereo not drawn)
dose: 50.0 mg/kg/injection, schedule: Q01DX005 (ip), vehicle: saline with Tween-80
  T/C: 102 % of control
dose: 100.0 mg/kg/injection, schedule: Q01DX005 (ip), vehicle: saline with Tween-80
  T/C: 89 % of control

## CN=S(=O)(OCCCCOS(=O)(=NC)c1ccc(C)cc1)c1ccc(C)cc1 (stereo not drawn)
[4]
  T/C: 152 % of control

## CC(C)(C)c1ccc(OS(=O)(=O)c2ccccc2[N+](=O)[O-])cc1
dose: 100.0 mg/kg/injection, schedule: Q01DX001 (ip), vehicle: saline with Tween-80
  T/C: 104 % of control
dose: 200.0 mg/kg/injection, schedule: Q01DX001 (ip), vehicle: saline with Tween-80
  T/C: 100 % of control
dose: 400.0 mg/kg/injection, schedule: Q01DX001 (ip), vehicle: saline with Tween-80
  T/C: 113 % of control
